Laboratory results reported in paper PMC10302398, “Mechanistic Insights into the Antibiofilm Mode of Action of Ellagic Acid” (Pharmaceutics, 2023).

Experiments:
[1] = target: T1, WrbA (NADH:quinone oxidoreductase WrbA; WrbAJW) (Escherichia coli, UniProt P0A8G6); assay: MST (Kd […]); also SPR (Kd […]) and NADH:DCPIP oxidoreductase inhibition (IC50 […]); format: binding
[2] = target: T1, WrbA (NADH:quinone oxidoreductase WrbA; WrbAJW); assay: NADH:DCPIP oxidoreductase activity assay of purified WrbAJW; format: biochemical

T1 sequence (P0A8G6 2-198): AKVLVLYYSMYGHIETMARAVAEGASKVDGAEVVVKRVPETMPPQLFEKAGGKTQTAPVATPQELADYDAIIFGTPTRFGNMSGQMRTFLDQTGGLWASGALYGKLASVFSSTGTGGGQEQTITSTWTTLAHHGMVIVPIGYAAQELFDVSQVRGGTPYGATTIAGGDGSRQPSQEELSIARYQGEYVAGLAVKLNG

SMILES | Kd [1] | IC50 [2]
O=c1oc2c(O)c(O)cc3c(=O)oc4c(O)c(O)cc1c4c23 [EA, ellagic acid] | 0.0015 ± 0.0004 mM | 
O=C(O)c1ccccc1O [SA, salicylic acid] |  | 7.85 ± 2.65 mM
